From ChEMBL document CHEMBL1145761 (Bioorg Med Chem Lett, 2003) come the findings set out here.

This test addresses Neuronal acetylcholine receptor; alpha4/beta2 (Rattus norvegicus, UniProt P09483+P12390). As to the kind of experiment: Affinity at alpha4-beta2 nACh receptors in rat brain (minus cerebellum) homogenates. In kind it is tissue-based.

pKi: −log10 of the molar value.

As usually defined, the pKi is −log10 of the Ki, conventionally taken in molar units. Higher therefore signals a small Ki.

Chain of Neuronal acetylcholine receptor; alpha4/beta2 (P09483 whole entry): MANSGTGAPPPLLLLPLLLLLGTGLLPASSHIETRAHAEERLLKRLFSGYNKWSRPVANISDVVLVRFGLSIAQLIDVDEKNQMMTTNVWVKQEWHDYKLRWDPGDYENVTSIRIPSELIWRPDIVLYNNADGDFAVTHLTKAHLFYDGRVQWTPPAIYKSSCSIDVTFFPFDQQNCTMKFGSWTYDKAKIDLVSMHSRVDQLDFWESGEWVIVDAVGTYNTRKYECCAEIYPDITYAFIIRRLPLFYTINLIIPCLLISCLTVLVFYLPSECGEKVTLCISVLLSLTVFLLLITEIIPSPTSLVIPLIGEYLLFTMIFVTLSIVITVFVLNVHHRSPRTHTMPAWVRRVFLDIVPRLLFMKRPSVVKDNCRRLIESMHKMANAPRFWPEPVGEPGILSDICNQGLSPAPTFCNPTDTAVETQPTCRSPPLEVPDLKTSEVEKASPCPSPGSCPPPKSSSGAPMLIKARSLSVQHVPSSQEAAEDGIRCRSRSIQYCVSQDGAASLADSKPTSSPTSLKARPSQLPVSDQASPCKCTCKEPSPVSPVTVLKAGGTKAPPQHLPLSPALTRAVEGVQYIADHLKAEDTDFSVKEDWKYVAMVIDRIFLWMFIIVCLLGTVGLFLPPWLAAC
Chain of Neuronal acetylcholine receptor; alpha4/beta2 (P12390 whole entry): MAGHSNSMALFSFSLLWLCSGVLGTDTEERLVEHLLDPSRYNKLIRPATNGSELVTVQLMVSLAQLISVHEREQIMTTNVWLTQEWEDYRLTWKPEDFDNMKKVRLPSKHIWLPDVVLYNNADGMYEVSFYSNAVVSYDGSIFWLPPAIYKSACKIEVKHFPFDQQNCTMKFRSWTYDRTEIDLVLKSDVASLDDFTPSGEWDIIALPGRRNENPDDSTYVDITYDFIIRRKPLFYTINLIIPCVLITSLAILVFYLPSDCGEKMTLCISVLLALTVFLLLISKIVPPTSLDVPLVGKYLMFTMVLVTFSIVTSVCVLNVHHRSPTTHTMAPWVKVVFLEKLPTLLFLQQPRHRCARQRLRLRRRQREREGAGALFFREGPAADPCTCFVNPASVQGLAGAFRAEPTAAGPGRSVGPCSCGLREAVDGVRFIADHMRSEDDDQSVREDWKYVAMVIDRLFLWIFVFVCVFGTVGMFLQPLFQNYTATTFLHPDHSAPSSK

In turn, `CN1CCN=C1Cc1ccc(-c2ccccc2)nc1` had a pKi of 5.49.

`c1ccc(CN2CCCC2c2cccnc2)cc1` (stereo unspecified) showed a pKi of 6.44.

For the molecule `c1cncc(C2=NCCC2)c1` [MYOSMINE], the pKi was 5.48.

Molecule `COc1ccc(CC2=NCCN2C)cn1` gave a pKi of 7.34.

In turn, `CN1CCCC1c1ccc(Cl)nc1` (stereo unspecified) showed a pKi of 9.22.

Consider `CN1CCCC1c1cnc2ccccc2c1` (stereo unspecified), for which the pKi was 7.96.

Molecule `CN1CCN=C1Cc1ccc(Br)nc1` showed a pKi of 8.14.

`CN1CCN=C1Cc1ccc(Cl)nc1` had a pKi of 8.48.

For the molecule `CN1CCN=C1Cc1cnc2ccccc2c1`, the pKi is 7.42.

Molecule `CN1CCCC1c1ccc(Br)nc1` (stereo unspecified) gave a pKi of 9.30.

Molecule `CN1CCCC1c1ccc(-c2ccccc2)nc1` (stereo unspecified) showed a pKi of 5.03.
